What was measured:
rat mGlu2 receptor = target: T1, rat mGlu2 receptor (Rattus norvegicus, UniProt P31421); test: [3H]-LY354740 binding on mGlu2 transfected CHO cell membranes; settings: inhibition of 10 nM [3H]-LY354740 binding, membranes of CHO cells transfected with rat mGlu2, room temperature, 1 hour
T1 construct: expressed in transfected cells; membranes prepared
Text: [^3H]-LY354740 Binding on mGlu2 Transfected CHO Cell Membranes. Transfection and Cell Culture
cDNA encoding the rat mGlu2 receptor protein in pBluescript II was subcloned into the eukaryotic expression vector pcDNA I-amp from Invitrogen Ltd (Paisley, UK). This vector construct (pcD1mGR2) was co-transfected with a psvNeo plasmid encoding the gene for neomycin resistance, into CHO cells by a modified calcium phosphate method described by Chen & Okayama (1988). The cells were maintained in Dulbecco's Modified Eagle medium with reduced L-glutamine (1 mM final concentration), 36 mg/L L-Proline and 10% dialysed foetal calf serum from Gibco-Invitrogen; the medium was supplemented with 500 microM α-methyl-4-carboxyphenylglycine (MCPG). Selection was made in the presence of G-418 (300 ug/ml final concentration). Clones were identified by reverse transcription of 5 μg total RNA, followed by PCR using mGlu2 receptor specific primers 5′-[…]-3′ and 5′-[…]-3′ in 60 mM Tris HCl (pH 10), 15 mM (NH4)2SO4, 2 mM MgCl2, 25 units/ml Taq Polymerase with 30 cycles annealing at 60° C. for 1 min., extention at 72° C. for 30 s, and 1 min. 95° C. denaturation.
Cells, cultured as above, were harvested and washed three times with cold PBS and frozen at −80° C. The pellet was resuspended in cold 20 mM HEPES-NaOH buffer containing 10 mM EDTA (pH 7.4), and homogenised with a polytron (Kinematica, A G, Littau, Switzerland) for 10 s at 10 000 rpm. After centrifugation for 30 min. at 4° C., the pellet was washed once with cold 20 mM HEPES-NaOH buffer containing 0.1 mM EDTA, (pH 7.4). After a second centrifugation for 30 min. at 4° C. the pellet was resuspended in cold 20 mM HEPES-NaOH buffer containing 0.1 mM EDTA, (pH 7.4). Protein content was measured using the Micro BCA method from Pierce-Perbio (Rockford, Ill., USA) using bovine serum albumin as standard.
After thawing, the membranes were resuspended in cold 50 mM Tris-HCl buffer containing 2 mM MgCl2 (pH 7.4) (binding buffer). The final concentration of the membranes in the assays was 25 μg protein/ml. Inhibition experiments were performed with membranes incubated with 10 nM [^3H]-LY354740 at room temperature, for 1 hour, in presence of various concentrations of the compound to be tested. Following the incubations, membranes were filtered onto Whatmann GF/B glass fiber filters or onto GF/B Unifilter plates and washed 5 times with cold binding buffer. Non specific binding was measured in the presence of 10 μM (2S,2′R,3′R)-2-(2′3′-Dicarboxycyclopropyl)glycine (DCG IV from Tocris, Ellisville, Mo. USA). After transfer of the filters into plastic vials containing 10 ml of Ultima-gold scintillation fluid from Perkin-Elmer (Boston, Mass., USA), the radioactivity was measured by liquid scintillation in a Tri-Carb 2500 TR counter (Packard, Zürich, Switzerland). For 96-Unifilter plates the radioactivity was measured after addition of Microscint 40 scintillation fluid (Perkin Elmer, Boston Mass.) using a TopCount NXT (Packard)
The inhibition curves were fitted with a four parameter logistic equation giving IC50 values, and Hill coefficients.

T1 sequence (P31421 19-872): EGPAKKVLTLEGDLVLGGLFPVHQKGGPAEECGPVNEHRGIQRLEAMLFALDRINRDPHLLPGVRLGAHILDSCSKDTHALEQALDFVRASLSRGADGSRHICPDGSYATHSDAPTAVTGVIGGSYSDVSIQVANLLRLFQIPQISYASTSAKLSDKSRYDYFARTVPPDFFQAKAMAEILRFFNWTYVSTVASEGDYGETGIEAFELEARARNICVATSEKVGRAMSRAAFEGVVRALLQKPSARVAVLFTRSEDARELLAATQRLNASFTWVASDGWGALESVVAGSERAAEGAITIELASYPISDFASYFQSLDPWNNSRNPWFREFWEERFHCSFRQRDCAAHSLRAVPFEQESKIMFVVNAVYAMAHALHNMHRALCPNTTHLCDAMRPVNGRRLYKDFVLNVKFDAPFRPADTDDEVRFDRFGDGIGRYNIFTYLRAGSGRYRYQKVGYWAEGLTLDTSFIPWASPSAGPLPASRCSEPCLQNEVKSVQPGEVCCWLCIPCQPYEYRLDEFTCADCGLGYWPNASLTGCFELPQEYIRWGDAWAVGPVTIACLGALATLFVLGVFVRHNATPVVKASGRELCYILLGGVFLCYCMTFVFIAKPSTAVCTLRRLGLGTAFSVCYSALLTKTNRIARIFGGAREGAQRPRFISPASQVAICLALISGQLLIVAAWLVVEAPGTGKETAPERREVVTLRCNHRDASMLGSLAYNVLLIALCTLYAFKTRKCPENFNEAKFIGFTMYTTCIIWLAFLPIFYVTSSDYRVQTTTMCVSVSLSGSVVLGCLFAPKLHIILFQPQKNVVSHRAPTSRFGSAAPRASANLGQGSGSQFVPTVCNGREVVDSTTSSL

Ki (rat mGlu2 receptor) [nM] | melting point [°C] | Structure (SMILES)
74 | 175 | FC(F)(F)c1cc(-c2ccc(Cl)cc2)nc(-n2ccnc2)n1 [Example 1, 4-(4-Chloro-phenyl)-2-imidazol-1-yl-6-trifluoromethyl-pyrimidine]
28 | 273 | NS(=O)(=O)c1cccc(-c2nc(-c3nc(-c4ccc(Cl)cc4)cc(C(F)(F)F)n3)no2)c1 [Example 2, 3-{3-[4-(4-Chloro-phenyl)-6-trifluoromethyl-pyrimidin-2-yl]-[1,2,4]oxadiazol-5-yl}-benzenesulfonamide]
72 | 162 | FC(F)(F)c1ccc(-c2cc(C(F)(F)F)nc(-n3ccnc3)n2)cc1 [Example 3, 2-Imidazol-1-yl-4-trifluoromethyl-6-(4-trifluoromethyl-phenyl)-pyrimidine]
71 | – | Nc1ccc(-c2ncn(-c3cc(C(F)(F)F)cc(-c4ccc(C(F)(F)F)cc4)n3)n2)cn1 [Example 277, 5-{1-[4-Trifluoromethyl-6-(4-trifluoromethyl-phenyl)-pyridin-2-yl]-1H-[1,2,4]triazol-3-yl}-pyridin-2-ylamine]
3 | – | CC(C)(C)NS(=O)(=O)c1cccc(-c2cn(-c3cc(C(F)(F)F)cc(-c4ccc(C(F)(F)F)cc4)n3)cn2)c1 [Example 280, N-tert-Butyl-3-{1-[4-trifluoromethyl-6-(4-trifluoromethyl-phenyl)-pyridin-2-yl]-1H-imidazol-4-yl}-benzenesulfonamide]
9 | – | Cc1cc(-c2ccc(C(F)(F)F)cc2)cc(-c2ccnc(-c3cccc([N+](=O)[O-])c3)n2)n1 [Example 322, 4-[6-Methyl-4-(4-trifluoromethyl-phenyl)-pyridin-2-yl]-2-(3-nitro-phenyl)-pyrimidine]
4 | – | Cc1cc(-c2ccc(C(F)(F)F)cc2)cc(-c2ccnc(-c3cccc(NS(C)(=O)=O)c3)n2)n1 [Example 330, N-(3-{4-[6-Methyl-4-(4-trifluoromethyl-phenyl)-pyridin-2-yl]-pyrimidin-2-yl}-phenyl)-methanesulfonamide]
1 | – | Cc1cc(-c2ccc(C(F)(F)F)cc2)cc(-c2ccnc(-c3cccc(NS(N)(=O)=O)c3)n2)n1 [Example 338, N-(3-{4-[6-Methyl-4-(4-trifluoromethyl-phenyl)-pyridin-2-yl]-pyrimidin-2-yl}-phenyl)-sulfamide]
0.7 | – | Cc1cc(-c2ccc(C(F)(F)F)cc2)cc(-c2cccc(-c3cccc(S(=O)(=O)O)c3)n2)n1 [Example 345, 3-[6′-Methyl-4′-(4-trifluoromethyl-phenyl)-[2,2′]bipyridinyl-6-yl]-benzenesulfonic acid]
– | 188 | NS(=O)(=O)c1cccc(-c2cccc(-c3nc(-c4ccc(C(F)(F)F)c(OCC(F)(F)F)c4)cc(C(F)(F)F)n3)c2)c1 [Example 447, 3′-{4-[3-(2,2,2-Trifluoro-ethoxy)-4-trifluoromethyl-phenyl]-6-trifluoromethyl-pyrimidin-2-yl}-biphenyl-3-sulfonic acid amide]
– | 211 | NS(=O)(=O)c1cccc(-c2cc(-c3nc(-c4ccc(C(F)(F)F)c(OCC(F)(F)F)c4)cc(C(F)(F)F)n3)ccn2)c1 [Example 448, 3-(4-{4-[3-(2,2,2-Trifluoro-ethoxy)-4-trifluoromethyl-phenyl]-6-trifluoromethyl-pyrimidin-2-yl}-pyridin-2-yl)-benzenesulfonamide]
– | 244 | NS(=O)(=O)c1cccc(-c2cc(-c3nc(-c4cccc(C(F)(F)F)c4)cc(C(F)(F)F)n3)ccn2)c1 [Example 449, 3-{4-[4-Trifluoromethyl-6-(3-trifluoromethyl-phenyl)-pyrimidin-2-yl]-pyridin-2-yl}-benzenesulfonamide]
– | 210 | NS(=O)(=O)c1cccc(-c2cc(-c3nc(-c4ccc(C(F)(F)F)cc4F)cc(C(F)(F)F)n3)ccn2)c1 [Example 450, 3-{4-[4-(2-Fluoro-4-trifluoromethyl-phenyl)-6-trifluoromethyl-pyrimidin-2-yl]-pyridin-2-yl}-benzenesulfonamide]
– | 228 | NS(=O)(=O)c1ccc(-c2cc(-c3nc(-c4ccc(C(F)(F)F)cc4F)cc(C(F)(F)F)n3)ccn2)s1 [Example 451, 5-{4-[4-(2-Fluoro-4-trifluoromethyl-phenyl)-6-trifluoromethyl-pyrimidin-2-yl]-pyridin-2-yl}-thiophene-2-sulfonic acid amide]
– | 237.5 | CCOc1cc(-c2cc(C(F)(F)F)nc(-c3ccnc(-c4ccc(S(N)(=O)=O)s4)c3)n2)ccc1C(F)(F)F [Example 453, 5-{4-[4-(3-Ethoxy-4-trifluoromethyl-phenyl)-6-trifluoromethyl-pyrimidin-2-yl]-pyridin-2-yl}-thiophene-2-sulfonic acid amide]
– | 188 | CCCC(=O)NS(=O)(=O)c1cccc(-c2cccc(-c3cc(-c4ccc(C(F)(F)F)cc4)cc(C)n3)n2)c1 [Example 454, N-Butyryl-3-[6′-methyl-4′-(4-trifluoromethyl-phenyl)-[2,2′]bipyridinyl-6-yl]-benzenesulfonamide]
– | 190 | Cc1cc(-c2ccc(C(F)(F)F)cc2)cc(-c2cccc(-c3cccc(S(=O)(=O)NC(=O)C(C)C)c3)n2)n1 [Example 455, N-Isobutyryl-3-[6′-methyl-4′-(4-trifluoromethyl-phenyl)-[2,2′]bipyridinyl-6-yl]-benzenesulfonamide]
– | 204 | NS(=O)(=O)c1cccc(-c2cccc(-c3nc(-c4ccc(C(F)(F)F)cc4)cc(C(F)F)n3)c2)c1 [Example 456, 3′-[4-Difluoromethyl-6-(4-trifluoromethyl-phenyl)-pyrimidin-2-yl]-biphenyl-3-sulfonic acid amide]
– | 233.5 | NS(=O)(=O)c1cccc(-c2cc(-c3nc(-c4ccc(C(F)(F)F)cc4)cc(C(F)F)n3)ccn2)c1 [Example 457, 3-{4-[4-Difluoromethyl-6-(4-trifluoromethyl-phenyl)-pyrimidin-2-yl]-pyridin-2-yl}-benzenesulfonamide]
– | 242 | NS(=O)(=O)c1ccc(-c2cc(-c3nc(-c4ccc(C(F)(F)F)cc4)cc(C(F)F)n3)ccn2)s1 [Example 458, 5-{4-[4-Difluoromethyl-6-(4-trifluoromethyl-phenyl)-pyrimidin-2-yl]-pyridin-2-yl}-thiophene-2-sulfonic acid amide]
– | 240.5 | NS(=O)(=O)c1ccc(-c2cccc(-c3nc(-c4ccc(C(F)(F)F)cc4)cc(C(F)F)n3)c2)s1 [Example 459, 5-{3-[4-Difluoromethyl-6-(4-trifluoromethyl-phenyl)-pyrimidin-2-yl]-phenyl}-thiophene-2-sulfonic acid amide]
– | 227.5 | NS(=O)(=O)c1cccc(-c2cccc(-c3nc(-c4ccc(C(F)(F)F)c(F)c4)cc(C(F)(F)F)n3)c2)c1 [Example 460, 3′-[4-(3-Fluoro-4-trifluoromethyl-phenyl)-6-trifluoromethyl-pyrimidin-2-yl]-biphenyl-3-sulfonic acid amide]
– | 213.5 | NS(=O)(=O)c1ccc(-c2cccc(-c3nc(-c4ccc(C(F)(F)F)c(F)c4)cc(C(F)(F)F)n3)c2)s1 [Example 461, 5-{3-[4-(3-Fluoro-4-trifluoromethyl-phenyl)-6-trifluoromethyl-pyrimidin-2-yl]-phenyl}-thiophene-2-sulfonic acid amide]
– | 188 | COCC(=O)NS(=O)(=O)c1cccc(-c2cccc(-c3cc(-c4ccc(C(F)(F)F)cc4)cc(C)n3)n2)c1 [Example 462, N-(2-Methoxy-acetyl)-3-[6′-methyl-4′-(4-trifluoromethyl-phenyl)-[2,2′]bipyridinyl-6-yl]-benzenesulfonamide]

Structure (SMILES) | Ki (rat mGlu2 receptor) [nM] | melting point [°C]
Cc1cc(-c2ccc(C(F)(F)F)cc2)cc(-c2cccc(-c3cccc(NS(=O)(=O)NC(=O)OC(C)(C)C)c3)n2)n1 [Example 334, N-(tert-Butoxycarbonyl)-N′-{3-[6′-methyl-4′-(4-trifluoromethyl-phenyl)-[2,2′]bipyridinyl-6-yl]-phenyl}-sulfamide] | 11 | –

Source: US8183262B2, “Pyridine derivatives as mGluR2 antagonists” (Hoffmann-La Roche Inc., priority 2007, dated 2012)
